Experimental data from ChEMBL document CHEMBL5104196, “Discovery of Novel, Potent, and Selective Small-Molecule Menin-Mixed Lineage Leukemia Interaction Inhibitors through Attempting Introduction of Hydrophilic Groups” (J Med Chem, 2022).
The source made the active and inactive calls. No cut-off for these calls is given here.

How the values were obtained:
[1] = target: Menin/Histone-lysine N-methyltransferase MLL (Homo sapiens, UniProt O00255); experiment: Inhibition of Menin/fluorescein labeled MLL(4 to 43 residues) (unknown origin) protein protein interaction incubated for 1 hr by fluorescence polarization-based competitive binding assay
[2] = tested on: HL-60; experiment: Antiproliferative activity against human […] assessed as cell growth inhibition measured for 72 hrs by MTT assay; assay type: functional, cell-based; conditions: HL-60, 72 h
[3] = tested on: MV4-11; experiment: Antiproliferative activity against human MV4-11 cells assessed as reduction in cell viability measured for 3 days by cell counting assay; assay type: functional, cell-based; conditions: MV4-11, 72 h
[4] = tested on: MV4-11; experiment: Antiproliferative activity against human MV4-11 cells assessed as reduction in cell viability measured for 3 days followed by replacement with fresh medium of compound and measured after 72 hrs by cell counting assay; assay type: functional, cell-based; conditions: MV4-11, 72 h
[5] = tested on: MV4-11; experiment: Downregulation of HOXA9 gene in human MV4-11 cells incubated for 24 hrs by real-time PCR analysis; assay type: functional, cell-based; conditions: dose 0.1-10 µM, DDE = dose-dependent effect
[6] = tested on: MV4-11; experiment: Downregulation of MEISI gene in human MV4-11 cells incubated for 24 hrs by real-time PCR analysis; assay type: functional, cell-based; conditions: dose 0.1-10 µM, DDE = dose-dependent effect
[7] = species on record: Homo sapiens; experiment: Inhibition of tyrosine kinase (unknown origin) at 1 uM in presence of ATP at Km concentration by Mobility shift assay relative to control
[8] = species on record: Homo sapiens; experiment: Inhibition of STE (unknown origin) at 1 uM in presence of ATP at Km concentration by Mobility shift assay relative to control
[9] = target: Casein kinase I (Homo sapiens) (UniProt Q9HCP0+P78368+P48730+P49674+P48729); experiment: Inhibition of CK1 (unknown origin) at 1 uM in presence of ATP at Km concentration by Mobility shift assay relative to control; assay type: protein assay
[10] = species on record: Homo sapiens; experiment: Inhibition of AGC (unknown origin) at 1 uM in presence of ATP at Km concentration by Mobility shift assay relative to control
[11] = species on record: Homo sapiens; experiment: Inhibition of GAMK (unknown origin) at 1 uM in presence of ATP at Km concentration by Mobility shift assay relative to control
[12] = species on record: Homo sapiens; experiment: Inhibition of CMGC (unknown origin) at 1 uM in presence of ATP at Km concentration by Mobility shift assay relative to control
[13] = tested on: MV4-11; experiment: Induction of cell differentiation in human MV4-11 cells assessed as increase in CD11b expression at 10 uM measured after 7 days by flow cytometric analysis; assay type: functional, cell-based; conditions: time 7.0 day
[14] = tested on: MV4-11; experiment: Reversible differentiation arrest in human MV4-11 cells at 0.1 to 10 uM measured after 7 days by flow cytometric analysis; assay type: functional, cell-based; conditions: dose 0.1-10 µM, time 7.0 day
[15] = tested on: MV4-11; experiment: Induction of apoptosis in human MV4-11 cells incubated for 24 hrs by annexinV/PI staining based flow cytometry analysis; assay type: functional, cell-based; conditions: dose 0.1-10 µM, DDE = dose-dependent effect
[16] = tested on: MV4-11; experiment: Induction of cell cycle arrest in human MV4-11 cells assessed as accumulation at S phase at 0.1 to 10 uM incubated for 24 hrs by PI/RNase staining based flow cytometry analysis; assay type: functional; conditions: dose 0.1-10 µM
[17] = Metabolic stability in CD-1 mouse liver microsome assessed as compound remaining measured after 60 min by UPLC-MS/MS analysis; assay type: ADME; conditions: liver microsomes, read-out: Stability
[18] = Metabolic stability in Sprague-Dawley rat liver microsome assessed as compound remaining measured after 60 min by UPLC-MS/MS analysis; assay type: ADME; conditions: liver microsomes, read-out: Stability
[19] = Metabolic stability in Beagle dog liver microsome assessed as compound remaining measured after 60 min by UPLC-MS/MS analysis; assay type: ADME, Canis lupus familiaris; conditions: liver microsomes, read-out: Stability
[20] = Metabolic stability in human liver microsome assessed as compound remaining measured after 60 min by UPLC-MS/MS analysis; assay type: ADME; conditions: liver microsomes, read-out: Stability
[21] = Metabolic stability in CD-1 mouse liver microsome assessed as half life measured upto 60 min by UPLC-MS/MS analysis; assay type: ADME; conditions: liver microsomes
[22] = Metabolic stability in Sprague-Dawley rat liver microsome assessed as half life measured upto 60 min by UPLC-MS/MS analysis; assay type: ADME; conditions: liver microsomes
[23] = Metabolic stability in Crab eating monkey liver microsome assessed as half life measured upto 60 min by UPLC-MS/MS analysis; assay type: ADME, Macaca fascicularis; conditions: cynomolgus monkey, liver microsomes
[24] = Metabolic stability in CD-1 mouse liver microsome assessed as intrinsic clearance measured upto 60 min by UPLC-MS/MS analysis; assay type: ADME; conditions: microsomes, 1 h
[25] = Metabolic stability in Beagle dog liver microsome assessed as intrinsic clearance measured upto 60 min by UPLC-MS/MS analysis; assay type: ADME, Canis lupus familiaris; conditions: microsomes, 1 h
[26] = Metabolic stability in human liver microsome assessed as intrinsic clearance measured upto 60 min by UPLC-MS/MS analysis; assay type: ADME; conditions: microsomes, 1 h
[27] = Metabolic stability in CD-1 mouse liver assessed as intrinsic clearance measured upto 60 min by UPLC-MS/MS analysis; assay type: ADME, tissue-based; conditions: read-out: CLH
[28] = Metabolic stability in Sprague-Dawley rat liver assessed as intrinsic clearance measured upto 60 min by UPLC-MS/MS analysis; assay type: ADME, tissue-based; conditions: read-out: CLH
[29] = Metabolic stability in Crab eating monkey liver assessed as intrinsic clearance measured upto 60 min by UPLC-MS/MS analysis; assay type: ADME, tissue-based, Macaca fascicularis; conditions: cynomolgus monkey, read-out: CLH
[30] = Metabolic stability in human liver assessed as intrinsic clearance measured upto 60 min by UPLC-MS/MS analysis; assay type: ADME, tissue-based; conditions: read-out: CLH
[31] = Half life in Sprague-Dawley rat at 15 mg/kg, po; assay type: ADME, organism-based; conditions: in vivo
[32] = MRT in Sprague-Dawley rat at 5 mg/kg, iv; assay type: ADME, organism-based; conditions: in vivo
[33] = MRT in Sprague-Dawley rat at 15 mg/kg, po; assay type: ADME, organism-based; conditions: in vivo
[34] = Cmax in Sprague-Dawley rat at 5 mg/kg, iv; assay type: ADME, organism-based; set-up: dose 5 mg/kg, route iv; conditions: in vivo
[35] = Cmax in Sprague-Dawley rat at 15 mg/kg, po; assay type: ADME, organism-based; set-up: dose 15 mg/kg, route po; conditions: in vivo
[36] = AUC (0 to t) in Sprague-Dawley rat at 5 mg/kg, iv; assay type: ADME, organism-based; set-up: dose 5 mg/kg, route iv; conditions: in vivo
[37] = AUC (0 to t) in Sprague-Dawley rat at 15 mg/kg, po; assay type: ADME, organism-based; set-up: dose 15 mg/kg, route po; conditions: in vivo
[38] = AUC (0 to infinity) in Sprague-Dawley rat at 5 mg/kg, iv; assay type: ADME, organism-based; set-up: time infinity, dose 5 mg/kg, route iv; conditions: in vivo
[39] = AUC (0 to infinity) in Sprague-Dawley rat at 15 mg/kg, po; assay type: ADME, organism-based; set-up: time infinity, dose 15 mg/kg, route po; conditions: in vivo
[40] = Total clearance in Sprague-Dawley rat at 5 mg/kg, iv; assay type: ADME, organism-based; conditions: in vivo
[41] = Volume of distribution at steady state in Sprague-Dawley rat at 5 mg/kg, iv; assay type: ADME, organism-based; conditions: in vivo
[42] = Volume of distribution at steady state in Sprague-Dawley rat at 15 mg/kg, po; assay type: ADME, organism-based; conditions: in vivo
[43] = tested on: MV4-11; experiment: Antitumor activity against human MV4-11 cells xenografted in BALB/c nude mouse assessed as tumor growth inhibition at 6 mg/kg, po administered every second day for 16 days by calipers analysis; assay type: functional; conditions: MV4-11, 384 h, time 16 day, read-out: TGI
[44] = tested on: MV4-11; experiment: Suppression of HOXA9 gene transcription in human MV4-11 cells xenografted in BALB/c nude mouse at 15 mg/kg, iv measured at 24 hrs by RT-PCR analysis; assay type: functional, organism-based
[45] = tested on: MV4-11; experiment: Suppression of MEIS1 gene transcription in human MV4-11 cells xenografted in BALB/c nude mouse at 15 mg/kg, iv measured after 24 hrs by RT-PCR analysis; assay type: functional, organism-based

Chain of Menin/Histone-lysine N-methyltransferase MLL (O00255 whole entry, the tested form may be a part): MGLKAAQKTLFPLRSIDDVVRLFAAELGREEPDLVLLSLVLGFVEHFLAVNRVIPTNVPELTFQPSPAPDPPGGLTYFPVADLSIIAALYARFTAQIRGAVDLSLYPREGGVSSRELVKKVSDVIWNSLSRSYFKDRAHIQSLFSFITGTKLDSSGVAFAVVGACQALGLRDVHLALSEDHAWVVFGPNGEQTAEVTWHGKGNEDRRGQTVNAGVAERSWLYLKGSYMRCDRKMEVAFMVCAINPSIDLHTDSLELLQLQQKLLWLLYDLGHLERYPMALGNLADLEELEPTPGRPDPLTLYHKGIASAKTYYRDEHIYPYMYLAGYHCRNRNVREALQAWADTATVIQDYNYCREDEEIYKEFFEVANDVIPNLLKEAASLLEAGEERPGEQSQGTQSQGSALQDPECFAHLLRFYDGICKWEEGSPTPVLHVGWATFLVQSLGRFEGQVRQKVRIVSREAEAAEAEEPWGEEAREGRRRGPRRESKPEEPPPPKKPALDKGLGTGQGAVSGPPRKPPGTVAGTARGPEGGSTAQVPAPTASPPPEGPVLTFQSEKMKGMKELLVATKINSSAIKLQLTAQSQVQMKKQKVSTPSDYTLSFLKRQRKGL
Chain of Menin/Histone-lysine N-methyltransferase MLL (Q03164 1-2718 partner limits assumed): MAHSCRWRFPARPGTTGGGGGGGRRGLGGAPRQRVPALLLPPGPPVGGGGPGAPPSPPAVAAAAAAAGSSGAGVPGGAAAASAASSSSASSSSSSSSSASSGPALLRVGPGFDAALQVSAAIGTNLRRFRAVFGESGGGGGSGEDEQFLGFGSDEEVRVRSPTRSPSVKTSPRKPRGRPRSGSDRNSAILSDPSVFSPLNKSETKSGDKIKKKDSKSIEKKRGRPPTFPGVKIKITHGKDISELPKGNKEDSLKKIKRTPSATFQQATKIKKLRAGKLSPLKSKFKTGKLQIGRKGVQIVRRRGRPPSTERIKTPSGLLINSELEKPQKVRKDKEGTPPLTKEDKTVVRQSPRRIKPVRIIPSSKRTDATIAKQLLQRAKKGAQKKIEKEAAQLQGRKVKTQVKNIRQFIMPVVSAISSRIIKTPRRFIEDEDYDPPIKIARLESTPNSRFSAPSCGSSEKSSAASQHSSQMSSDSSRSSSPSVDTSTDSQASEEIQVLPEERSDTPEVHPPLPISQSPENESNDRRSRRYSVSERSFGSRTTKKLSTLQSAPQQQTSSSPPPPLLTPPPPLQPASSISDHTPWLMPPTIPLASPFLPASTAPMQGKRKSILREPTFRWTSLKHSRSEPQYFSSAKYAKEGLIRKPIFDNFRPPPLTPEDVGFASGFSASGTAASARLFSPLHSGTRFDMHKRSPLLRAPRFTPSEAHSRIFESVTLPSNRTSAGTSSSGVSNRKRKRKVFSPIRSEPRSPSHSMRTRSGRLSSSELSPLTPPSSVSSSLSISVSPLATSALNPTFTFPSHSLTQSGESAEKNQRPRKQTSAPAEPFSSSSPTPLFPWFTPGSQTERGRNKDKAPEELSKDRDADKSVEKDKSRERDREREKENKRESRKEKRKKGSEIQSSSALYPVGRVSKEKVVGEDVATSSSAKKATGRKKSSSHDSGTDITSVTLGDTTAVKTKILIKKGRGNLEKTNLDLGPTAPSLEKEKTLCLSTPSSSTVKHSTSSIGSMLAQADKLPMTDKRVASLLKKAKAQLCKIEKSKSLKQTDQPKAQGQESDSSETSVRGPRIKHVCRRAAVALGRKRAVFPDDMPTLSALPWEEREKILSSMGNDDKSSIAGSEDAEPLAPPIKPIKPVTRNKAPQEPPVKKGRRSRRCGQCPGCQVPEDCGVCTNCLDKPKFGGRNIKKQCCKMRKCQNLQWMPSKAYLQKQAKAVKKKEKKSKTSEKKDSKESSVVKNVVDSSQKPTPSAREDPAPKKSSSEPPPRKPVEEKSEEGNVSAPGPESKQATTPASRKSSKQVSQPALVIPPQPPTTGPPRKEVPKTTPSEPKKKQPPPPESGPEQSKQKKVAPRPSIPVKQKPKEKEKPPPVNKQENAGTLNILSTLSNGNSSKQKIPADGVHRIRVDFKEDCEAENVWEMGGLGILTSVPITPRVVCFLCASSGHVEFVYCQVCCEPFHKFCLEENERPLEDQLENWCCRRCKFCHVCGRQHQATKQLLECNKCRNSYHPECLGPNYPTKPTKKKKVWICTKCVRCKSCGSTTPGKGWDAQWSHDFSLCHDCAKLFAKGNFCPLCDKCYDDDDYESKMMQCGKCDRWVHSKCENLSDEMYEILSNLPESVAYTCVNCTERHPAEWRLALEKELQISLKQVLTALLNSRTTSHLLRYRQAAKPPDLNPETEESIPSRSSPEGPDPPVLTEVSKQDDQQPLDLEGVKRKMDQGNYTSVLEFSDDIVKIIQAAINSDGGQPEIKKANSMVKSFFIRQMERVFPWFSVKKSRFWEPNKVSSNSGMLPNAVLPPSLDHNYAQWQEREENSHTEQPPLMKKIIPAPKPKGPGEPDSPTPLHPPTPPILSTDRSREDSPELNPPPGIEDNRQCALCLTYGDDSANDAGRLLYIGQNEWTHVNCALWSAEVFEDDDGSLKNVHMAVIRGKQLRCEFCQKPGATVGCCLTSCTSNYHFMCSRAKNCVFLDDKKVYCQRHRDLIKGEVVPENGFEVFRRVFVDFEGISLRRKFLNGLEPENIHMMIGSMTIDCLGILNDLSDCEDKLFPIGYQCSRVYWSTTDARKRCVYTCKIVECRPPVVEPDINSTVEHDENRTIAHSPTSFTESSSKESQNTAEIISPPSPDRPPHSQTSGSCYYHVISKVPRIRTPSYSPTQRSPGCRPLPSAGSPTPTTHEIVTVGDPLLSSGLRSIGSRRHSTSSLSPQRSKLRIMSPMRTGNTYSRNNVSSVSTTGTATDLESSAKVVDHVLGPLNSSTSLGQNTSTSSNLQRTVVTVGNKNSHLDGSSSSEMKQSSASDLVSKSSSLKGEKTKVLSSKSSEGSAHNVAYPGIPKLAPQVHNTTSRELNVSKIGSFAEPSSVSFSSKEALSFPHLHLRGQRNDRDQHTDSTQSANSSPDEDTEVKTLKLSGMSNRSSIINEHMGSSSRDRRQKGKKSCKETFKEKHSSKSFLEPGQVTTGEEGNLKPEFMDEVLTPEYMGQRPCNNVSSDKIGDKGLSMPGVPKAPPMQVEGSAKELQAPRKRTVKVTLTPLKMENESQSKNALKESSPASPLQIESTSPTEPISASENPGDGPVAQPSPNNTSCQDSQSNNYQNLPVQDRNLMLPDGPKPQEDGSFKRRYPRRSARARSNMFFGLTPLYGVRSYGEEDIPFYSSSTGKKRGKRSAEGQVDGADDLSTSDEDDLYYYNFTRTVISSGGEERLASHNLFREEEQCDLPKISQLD
Chain of Menin/Histone-lysine N-methyltransferase MLL (Q03164 2719-3969 partner limits assumed): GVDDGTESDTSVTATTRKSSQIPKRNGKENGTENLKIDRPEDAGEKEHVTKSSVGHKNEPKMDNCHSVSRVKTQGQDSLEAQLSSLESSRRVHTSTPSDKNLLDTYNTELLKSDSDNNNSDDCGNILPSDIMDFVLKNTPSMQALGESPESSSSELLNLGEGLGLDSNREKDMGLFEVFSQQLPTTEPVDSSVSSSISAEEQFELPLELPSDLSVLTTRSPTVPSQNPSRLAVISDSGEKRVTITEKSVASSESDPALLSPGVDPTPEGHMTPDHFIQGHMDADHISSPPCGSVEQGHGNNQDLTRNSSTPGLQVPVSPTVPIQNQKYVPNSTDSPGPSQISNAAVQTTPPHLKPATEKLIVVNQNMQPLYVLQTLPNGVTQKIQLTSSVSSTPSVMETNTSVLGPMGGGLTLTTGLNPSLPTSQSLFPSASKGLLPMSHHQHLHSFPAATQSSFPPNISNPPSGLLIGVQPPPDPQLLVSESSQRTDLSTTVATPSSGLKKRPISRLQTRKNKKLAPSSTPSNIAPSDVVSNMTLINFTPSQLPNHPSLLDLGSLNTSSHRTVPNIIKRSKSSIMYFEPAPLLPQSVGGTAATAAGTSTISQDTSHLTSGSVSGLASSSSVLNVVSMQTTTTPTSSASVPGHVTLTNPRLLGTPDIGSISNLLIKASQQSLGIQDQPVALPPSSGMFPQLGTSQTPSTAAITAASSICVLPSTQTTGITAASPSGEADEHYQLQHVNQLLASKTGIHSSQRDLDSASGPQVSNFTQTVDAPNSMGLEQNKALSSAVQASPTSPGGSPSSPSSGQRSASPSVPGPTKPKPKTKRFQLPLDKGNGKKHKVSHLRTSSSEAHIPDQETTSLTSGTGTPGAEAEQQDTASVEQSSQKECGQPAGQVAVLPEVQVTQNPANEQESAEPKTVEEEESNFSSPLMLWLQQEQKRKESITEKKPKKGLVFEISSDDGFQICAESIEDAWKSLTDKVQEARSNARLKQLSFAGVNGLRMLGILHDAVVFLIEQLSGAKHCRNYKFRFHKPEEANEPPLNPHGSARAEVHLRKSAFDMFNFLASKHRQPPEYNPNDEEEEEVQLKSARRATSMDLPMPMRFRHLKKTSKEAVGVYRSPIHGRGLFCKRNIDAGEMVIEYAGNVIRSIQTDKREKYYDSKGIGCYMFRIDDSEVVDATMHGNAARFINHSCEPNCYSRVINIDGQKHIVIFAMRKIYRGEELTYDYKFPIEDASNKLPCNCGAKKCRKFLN

Compound: CN(C)CCOc1ccc2ncnc(NC3CCN(CC4CN(c5ccc(S(=O)(=O)C6CC6)cc5)C4)CC3)c2n1
- IC50 [1]: 7 nM
- IC50 [2]: > 10000 nM
- IC50 [3]: 360 nM
- IC50 [4]: 300 nM
- Activity [5]: Dde
- Activity [6]: Dde
- inhibition [7]: < 25%
- inhibition [8]: < 25%
- inhibition [9]: < 25%
- inhibition [10]: < 25%
- inhibition [11]: < 25%
- inhibition [12]: < 25%
- Activity [13]: Active
- Activity [14]: Active
- Activity [15]: Dde
- Activity [16]: Active
- remaining at 1 h [17]: 82%
- remaining at 1 h [18]: 77%
- remaining at 1 h [19]: 65%
- remaining at 1 h [20]: 79%
- half-life [21]: 3.38 h
- half-life [22]: 2.75 h
- half-life [23]: 1.08 h
- CLint [24]: 7.2 µL/min/mg
- CLint [25]: 13.9 µL/min/mg
- CLint [26]: 8.4 µL/min/mg
- CLint scaled [27]: 28.2 mL/min/kg
- CLint scaled [28]: 17.5 mL/min/kg
- CLint scaled [29]: 31.7 mL/min/kg
- CLint scaled [30]: 8 mL/min/kg
- half-life [31]: 15.5 h
- MRT [32]: 7.1 h
- MRT [33]: 12 h
- Cmax [34]: 1190 ng/mL
- Cmax [35]: 56.7 ng/mL
- AUC(0-t) [36]: 1700 ng·h/mL
- AUC(0-t) [37]: 864 ng·h/mL
- AUC(0-inf) [38]: 2500 ng·h/mL
- AUC(0-inf) [39]: 1480 ng·h/mL
- CL [40]: 34.27 mL/min/kg
- Vdss [41]: 49.3 L/kg
- Vdss [42]: 23 L/kg
- inhibition in vivo at 6 mg/kg [43]: 64%
- Activity [44]: Active
- Activity [45]: Active
